pEC50: −log10 of the molar value. Where a SMILES comes first, the peptide text is derived from it. Where no end group is shown, it is not given here. [ ]: non-standard residue; d: D form. NMeY = CN[C@@H](Cc1ccc(O)cc1)C(=O)O
Tests used:
PC-12 cells = experiment: Cell viability of PC-12 neural cells under glutamate stimulation (excitotoxic cell death model, propidium iodide/Hoechst staining); assay type: cell-based, rat; settings: for Normalized cell viability (%): 10 nM compound, 30 min pretreatment, then glutamate stimulation 24 h, normalized to positive control MK-801; for pEC50: dose-response relationship in promoting the viability of PC-12 neurons, glutamate stimulation
Protocol: 1.1. Culture of PC-12 Cell Line and Establishment of Excitotoxic Cell Death Model
PC-12 cells (a […] cell line derived from rat adrenal medulla) were cultured in DMEM/F12 complete medium until eaching 80-90% confluence. The cells were then digested, collected, resuspended, and seeded at density of 5×10^4 cells per well in a 24-well plate precoated with coverslips. Following 26 hours of cell culture, excitotoxic cell death was induced by glutamate stimulation. For model establishment: an appropriate amount of glutamate was weighed and dissolved in DMEM/F12 medium to prepare a stock solution. After filtration, the stock solution was diluted with culture medium and administered to the cells via medium replacement. The cells were further incubated for 24 hours after administration.
1.2 Administration of Small Molecules
Prior to glutamate modeling, cells incubated as described in the previous step were pretreated with 10 nM of the polypeptide compound according to the present application for 30 minutes, followed by glutamate stimulation.
1.3. Propidium Iodide Staining
Cells treated with the polypeptide compound according to the present application were stained with propidium iodide to assess cell death. After discarding the culture medium, the cells were washed with PBS, and propidium iodide/Hoechst was added. After incubating for 30 minutes, the cells were removed and the staining solution was discarded. After washing with PBS, the cells were fixed and mounted, and subjected to image acquisition under a fluorescence microscope. The number of propidium iodide-positive cells and Hoechst-positive cells in the acquired images was counted to calculate the cell viability. MK-801 was used as the positive control compound. The normalized cell viability was calculated using the following formula: (cell viability of the compound group −cell viability of the glutamate group)/(cell viability of the positive control group −cell viability of the glutamate group)×100%.
Based on the above dose-response studies of the compound, the inhibitory effects of different small-molecule compounds at the same dose (10 nM) against excitotoxic death in PC-12 neurons cells were further compared.
Based on this, the dose-response relationship of the neuroprotective effect of the polypeptide compounds according to the present application on PC-12 neural cells was analyzed.

[1] = Pharmacokinetic characteristics in rats after intravenous administration (plasma, LC-MS/MS); assay type: in vivo; settings: SD rats, intravenous (tail vein), 10 mg/kg; for MRT inf: rat
Protocol: Experimental Example 2: Pharmacokinetic Characteristics of Various Compounds in Rats
Intravenous administration: Three SD rats per group were administered the compounds of Example 1, Example 2, Example 3, Example 6, Example 7, Example 17, and Example 19 via the tail vein, respectively, at a dose of 10 mg/kg. all SD rats were allowed free access to food and water after administration. Plasma was collected 3 min, 10 min, 30 min, 1 h, 2 h, 6 h, 10 h, and 24 h after administration, with 3 rats per time point.
Sample processing: Whole blood was anticoagulated with EDTA-K2. Within 30 minutes of collection, the blood was centrifuged at 3000 g for 10 minutes at 2-8 °C. After centrifugation, the separated plasma was transferred to new 1.5 mL centrifuge tubes and stored at −80 °C.
Analytical method: The concentrations of each compounds in rat plasma were determined by LC-MS/MS using Shimadzu LC30AD and AB Sciex QTRAP 6500+instruments. The relevant pharmacokinetic parameters after administration were calculated.

CN[C@@H](Cc1ccc(O)cc1)C(=O)NCC(=O)N[C@@H](CCCNC(=N)N)C(=O)N[C@@H](CCCCN)C(=O)N[C@@H](CCCCN)C(=O)N[C@@H](CCCNC(=N)N)C(=O)N[C@@H](CCCNC(=N)N)C(=O)N[C@@H](CCC(N)=O)C(=O)N[C@@H](CCCNC(=N)N)C(=O)N[C@@H](CCCNC(=N)N)C(=O)N[C@@H](CCCNC(=N)N)C(=O)N[C@@H](CCCCN)C(=O)N[C@@H](CCCCN)C(=O)N[C@@H](CC(N)=O)C(=O)N[C@@H](CCCNC(=N)N)C(=O)N[C@@H](CC(N)=O)C(=O)N[C@@H](CCCCN)C(=O)N[C@@H](CC(C)C)C(=O)N[C@@H](CCCNC(=N)N)C(=O)N[C@@H](CCCNC(=N)N)C(=O)N[C@@H](CCC(N)=O)C(=O)N[C@@H](Cc1c[nH]cn1)C(=O)N[C@@H](CO)C(=O)N[C@@H](Cc1ccc(O)cc1)C(=O)O [Example 2] (H-[NMeY]GRKKRRQRRRKKNRNKLRRQHSY-OH)
Normalized cell viability (%) (PC-12 cells): 65.56%
pEC50 (PC-12 cells): 7.90
T1/2 [1]: 1.73 h
Vss [1]: 3.94 L/kg
MRT inf [1]: 1.84 h

CN[C@@H](Cc1ccc(O)cc1)C(=O)NCC(=O)N[C@@H](CCCNC(=N)N)C(=O)N[C@@H](CCCCN)C(=O)N[C@@H](CCCCN)C(=O)N[C@@H](CCCNC(=N)N)C(=O)N[C@@H](CCCNC(=N)N)C(=O)N[C@@H](CCC(=O)O)C(=O)N[C@@H](CCCNC(=N)N)C(=O)N[C@@H](CCCNC(=N)N)C(=O)N[C@@H](CCCNC(=N)N)C(=O)N[C@@H](CCCCN)C(=O)N[C@@H](CCCCN)C(=O)N[C@@H](CC(=O)O)C(=O)N[C@@H](CCCNC(=N)N)C(=O)N[C@@H](CC(=O)O)C(=O)N[C@@H](CCCCN)C(=O)N[C@@H](CC(C)C)C(=O)N[C@@H](CCCNC(=N)N)C(=O)N[C@@H](CCCNC(=N)N)C(=O)N[C@@H](CCC(=O)O)C(=O)N[C@@H](Cc1c[nH]cn1)C(=O)N[C@@H](CO)C(=O)N[C@@H](Cc1ccc(O)cc1)C(N)=O [Example 19] (H-[NMeY]GRKKRRERRRKKDRDKLRREHSY-NH2)
Normalized cell viability (%) (PC-12 cells): 87.71%
T1/2 [1]: 1.16 h
Vss [1]: 9.11 L/kg
MRT inf [1]: 1.73 h

Ac-YGRKKRRQRRRKKNRNKLRRQHSY-NH2 [Example 7]
pEC50 (PC-12 cells): 8.06
T1/2 [1]: 1.51 h
Vss [1]: 3.58 L/kg
MRT inf [1]: 1.93 h

YGRKKRRQRRRKKNRNKLRRQHSY [Example 1, reference compound]
Normalized cell viability (%) (PC-12 cells): 41.00%
pEC50 (PC-12 cells): 7.63
T1/2 [1]: 0.76 h
Vss [1]: 1.29 L/kg
MRT inf [1]: 0.87 h

YGRKKRRQRRRKKNRNKLRRQHSY-NH2 [Example 6]
pEC50 (PC-12 cells): 7.87
T1/2 [1]: 1.23 h
Vss [1]: 2.53 L/kg
MRT inf [1]: 1.65 h

Reference: patent publication US20260347409A1, “CHEMICALLY MODIFIED POLYPEPTIDE” (SUZHOU GLENKOL PHARMA TECHNOLOGY CO., LTD., priority 2023, published 2026)
